Legend:
Format in all cases: cell-based, human
[1] = system: pancreatic carcinoma cells; assay: MTT viability assay
Description: (§1) MTT Viability Assays. Cell viability was assessed by MTT assays as described (Lebedeva et al., 2000, Cancer Research 60:6052-6060). Briefly, cells were seeded in 96-well tissue culture plates (1.5×10^3 cells per well) and treated with various agents. At the indicated times, medium was removed, and fresh medium containing 0.5 mg/ml MTT was added to each well. The cells were incubated at 37° C. for 4 h and then an equal volume of solubilization solution (0.01N HCl in 10% SDS) was added to each well and mixed thoroughly. The optical density from the plates was read on a BioRad Microplate Reader Model 550 at 595 nm.

[2] = system: prostate carcinoma cell lines (DU-145, PC-3, LNCaP); assay: MTT viability assay; conditions: 48 h
Description: (§2) Cells were seeded in 96-well plates, pretreated with NAC (5 mM) or Tiron (1 mM) for 2 h and infected with Ad.mda-7. Forty eight hours later, viability was assessed by MTT assay. […] Cells were seeded in 96-well plates, infected with Ad.mda-7 and treated with As2O3 (10 μM) or NSC656240 (400 nM). Forty eight h later, viability was assessed by MTT assay. Panel C. […] After treatment, cells were stained using DCF-DA and analyzed using flow cytometry. […] After treatment, cells were washed and stained with Annexin V-FITC conjugate. Late apoptotic and necrotic cells were excluded using PI staining. Results are the mean of three independent experiments performed with triplicate samples±S.E.
[…] Cellular viability was assessed by MTT assay 48 h after infection (Panel A). Mitochondrial membrane potential (DiOC6(3) staining, Panel B) and apoptotic changes (Annexin V staining, Panel C) were assessed 18 h (LNCaP cells) and 24 h (DU-145, PC-3 and P69 cells) after infection.
as §1, with “This method” for “Cell viability”, “performed” for “assessed by MTT assays”, “Briefly, cells were seeded in 96-well tissue culture plates (1.5×10^3 cells per well) and treated with various agents.” left out, “time points,” for “times,”

prostate carcinoma cells = assay: ROS production (DCF fluorescence, flow cytometry)
Description: as §2

[3] = system: pancreatic carcinoma cells; assay: Apoptosis (annexin V exposure, hypodiploid A0 cells)
Source text: FIG. 39. Combined treatment of pancreatic carcinoma cells by NSC656240 and Ad.mda-7 increases levels of annexin V in pancreatic cancer cells irrespective of K-ras status.
FIG. 40. NAC administration prevents the apoptosis of pancreatic cancer cells induced by treatment of pancreatic carcinoma cells by NSC656240 or Ar2O3 and Ad.mda-7.
FIG. 41. Combined treatment of pancreatic carcinoma cells by NSC656240 or Ar2O3 and Ad.mda-7 causes apoptosis irrespective of K-ras status.
Annexin V Binding Assays. Cells were trypsinized, washed once with complete medium and stained with FITC-labeled Annexin-V (kit from Oncogene Research Products, Boston, Mass.) according to the manufacturer's instructions. Flow cytometry was performed immediately after staining.
Cell Cycle Analysis. Cells were trypsinized, washed 2× with PBS and fixed in 70% ethanol overnight at −20° C. Then cells were washed 2 times with PBS, and aliquots of 1×10^6 cells were resuspended in 1 ml of PBS containing 1 mg/ml of RNase A and 0.5 mg/ml of propidium iodide. After 30 min incubation, cells were analyzed by flow cytometry using a FACScan flow cytometer (Becton Dickinson, San Jose, Calif.).

[4] = system: pancreatic carcinoma cells; assay: ROS production (flow cytometry)
Description: FIG. 46. Combined treatment by NSC656240 or Ar2O3 and Ad.mda-7 causes overproduction of ROS in pancreatic carcinoma cells.
Assessment of ROS Production. To determine ROS production, cells were stained with 2.5 μM HE or 5 μM DCFH-DA in PBS for 30 min at 37° C. in the dark. Immediately after staining, cells were analyzed by flow cytometry (FACSscan, Becton-Dickinson, Mountain View, Calif.), and data were analyzed using CellQuest software, version 3.1 (Becton Dickinson). For inhibition experiments, NAC (Sigma) was added 2 h prior to infection with Ad.mda-7. In all cases, cells were gated to exclude cell debris.

[5] = system: pancreatic cancer cell lines; assay: Western blotting of K-ras and MDA-7 protein
Source text: FIG. 43. MDA-7 expression in pancreatic cancer cell lines in the presence or absence of Ad.mda-7, Ad.K-rasAS, or NSC656243. The presence of MDA-7 in mutant K-ras cell lines requires expression of both mda-7 and the antisense K-ras construct, and is potentiated by NSC656243.
FIG. 45. The MDA-7 expression observed in the PANC-1 or BxPC-3 cell lines following administration of Ad.mda-7 in combination with either NSC656240 or Ar2O3 is abrogated by NAC administration.
Preparation of Cell Extracts and Western Blotting Analysis. Cells were washed 2× with cold PBS and lysed on ice for 30 min in […] of cold RIPA buffer [50 mM Tris-HCl (pH 8.0), 150 mM NaCl, 0.1% SDS, 1% NP40, and 0.5% sodium deoxycholate] with freshly added 0.1 mg/ml phenylmethylsulfonyl fluoride, 1 mM sodium orthovanadate, and 1 mg/ml aprotinin. After cell debris were removed by centrifugation at 14,000 g for 10 min at 4° C., protein concentrations were determined using the Bio-Rad protein assay system (Bio-Rad Laboratories, Richmond, Calif.). Aliquots of cell extracts containing […] of total protein were resolved in 12% SDS-PAGE and transferred to Immobilon-P PVDF membranes (Millipore Corp., Bedford, Mass.). Filters were blocked for 1 h at room temperature in Blotto A [5% nonfat milk powder in TBS-T: 10 mM Tris-HCl (pH 8.0), 150 mM NaCl, 0.05% Tween 20], and then incubated for 1 h at room temperature in Blotto A containing a 1:1000 dilution of rabbit anti MDA-7 polyclonal antibody. After washing in TBS-T buffer (3×5 min, RT), filters were incubated for 1 h at room temperature in Blotto A containing a 1:10,000 dilution of peroxidase conjugated anti-rabbit secondary antibody (Amersham, Arlington Heights, Ill.). After washing in TBS-T, ECL was performed according to the manufacturer's recommendation.

[6] = system: pancreatic cancer cells stably transformed to express MDA-7; assay: Apoptosis and cell death in cells stably expressing MDA-7
Source text: FIG. 49. Induction of apoptosis in pancreatic cancer cell lines (PANC-1) stably expressing MDA-7.
FIG. 50. Induction of apoptosis in pancreatic cancer cell lines (Mia PaCa-2) stably expressing MDA-7.
FIG. 51. Induction of apoptosis in pancreatic cancer cell lines (FM516 or BxPC-3) stably expressing MDA-7.

CC(=O)N[C@@H](CS)C(=O)O [NAC, N-acetyl-cysteine]
effect of N-acetyl-cysteine on death after combinational treatment [1]: death can be prevented | effect of antioxidant on cell death promoting activity of Ad.mda-7 ([2]; NAC 5 mM, Tiron 1 mM): abrogated | effect of NAC on Ad.mda-7-induced ROS generation (prostate carcinoma cells; non-cytotoxic dose of NAC): suppressed Ad.mda-7-induced ROS generation | effect of NAC on apoptosis after combination treatment [3]: prevents apoptosis | effect of NAC on ROS production [4]: blocked ROS production | effect of NAC on MDA-7 expression and secretion ([5]; both type of cells): abrogates MDA-7 expression and secretion | effect of NAC on apoptosis and cell death [6]: blocks these processes

arsenic trioxide
cell death, combinational treatment with Ad.mda-7 ([1]; Ad.mda-7 100 p.f.u./cell): caused death of these cells irrespective of their K-ras status | effect of ROS-producing agent on cell death of Ad.mda-7-infected cells ([2]; As2O3 10 μM, NSC656240 400 nM): potentiated cell death | ROS levels (prostate carcinoma cells; treated with NSC656240 or As2O3): ROS levels increased proportionally | apoptosis, combination treatment with Ad.mda-7 ([3]; annexin V exposure and A0 population): caused apoptosis in pancreatic carcinoma cells independently of their K-ras status | ROS production, combined treatment with Ad.mda-7 [4]: Caused ROS overproduction | MDA-7 protein expression and secretion, combined treatment with Ad.mda-7 ([5]; wt and mutated K-ras pancreatic cancer cell lines): leads to MDA-7 protein expression and secretion | apoptosis and cell death [6]: caused apoptosis and cell death

— patent US20060110376A1, “MDA-7 and free radicals in the treatment of cancer” (priority 2002, published 2006)
